The values that follow come from patent US20230116703A1, “NOVEL ERGOLINES AND METHODS OF TREATING MOOD DISORDERS” (priority 2021, published 2023).

Like-named read-outs stand apart in the source and are kept apart here.

Series [1] concerns the target T1, 5-HT2A receptor (Homo sapiens, UniProt P28223).
T1 construct: host or cells: HEK293
The experiment in a line: biochemical. The following applies: 1 nM [^3H]ketanserin, HEK293 stable cell line; read-out: 5-HT2A Receptor Ki (nM) ([^3H]ketanserin). The class given is binding. Summed up: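 Values reflect [^3H]ketanserin binding competition. Assay conditions were adapted from the literature.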

The target in series [2] is T2, human 5-HT2C receptor (Homo sapiens, UniProt P28335).
T2 sequence (P28335 33-458): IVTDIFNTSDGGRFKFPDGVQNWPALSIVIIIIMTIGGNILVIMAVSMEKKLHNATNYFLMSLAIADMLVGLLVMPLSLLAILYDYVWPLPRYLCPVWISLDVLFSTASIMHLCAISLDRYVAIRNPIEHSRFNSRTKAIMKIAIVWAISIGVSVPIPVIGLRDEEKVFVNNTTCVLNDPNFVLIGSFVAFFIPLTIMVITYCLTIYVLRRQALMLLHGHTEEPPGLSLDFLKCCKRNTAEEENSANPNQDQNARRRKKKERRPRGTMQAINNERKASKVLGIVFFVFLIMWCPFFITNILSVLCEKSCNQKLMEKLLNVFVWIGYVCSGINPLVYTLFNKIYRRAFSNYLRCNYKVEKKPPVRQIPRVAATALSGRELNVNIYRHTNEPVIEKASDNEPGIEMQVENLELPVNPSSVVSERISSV
Briefly: cell-based. The following applies: Ca^2+ flux, agonist.

Series [3] deals with T3, 5-HT1A receptor (Homo sapiens, UniProt P08908).
T3 construct: host or cells: CHO cells
T3 sequence (P08908 1-422): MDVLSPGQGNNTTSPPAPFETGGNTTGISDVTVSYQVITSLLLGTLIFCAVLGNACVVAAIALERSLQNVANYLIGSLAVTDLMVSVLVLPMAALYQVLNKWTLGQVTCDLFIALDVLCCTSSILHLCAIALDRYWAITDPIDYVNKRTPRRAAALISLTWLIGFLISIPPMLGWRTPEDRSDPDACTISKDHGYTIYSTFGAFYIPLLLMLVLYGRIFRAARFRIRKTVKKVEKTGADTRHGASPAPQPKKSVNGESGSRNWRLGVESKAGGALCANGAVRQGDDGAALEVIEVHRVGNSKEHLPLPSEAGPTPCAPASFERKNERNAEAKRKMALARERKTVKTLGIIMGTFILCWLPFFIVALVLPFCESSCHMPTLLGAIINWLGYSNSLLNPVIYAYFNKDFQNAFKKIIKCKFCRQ
The experiment in a line: cell-based.

Series [4] has as its target T4, 5-HT2B receptor (Homo sapiens, UniProt P41595).
T4 construct: host or cells: HEK293
Briefly: cell-based. The following applies: Ca^2+ flux, agonist; read-out: 5-HT2B EC50.

Series [5] can be described thus: Metabolic stability in mouse liver microsomes (MLM). The class given is in vitro ADME. The following applies: 0.50 mg protein per mL; for t1/2: MLM (CD-1), 1 μM. The source says:
MLM Stability Pooled MLM from CD-1 mice (BIOIVT M00501) were used.

Series [6] concerns C57BL/6 mice. The experiment in a line: Head twitch response (HTR) in mice. The class given is in vivo, mouse. The following applies: mouse HTR, SC; for ED50: 20 min, read-out: ED50 (95% CI); for ED50 / Emax (95% CI): 20 min observation, curve fit, poor in some cases. The method, then:
Agonists of the 5-HT2A receptor are well known to induce this effect in rodents and the potency of this HTR is correlated with hallucinogenic potency in humans.
Animals. Adult male C57BL/6 mice, aged 6-8 weeks (body weight 20-25 g) were used in this experiment. Animals were housed under controlled temperatures and 12-hour light/dark cycles (lights on between 07:00-19:00 h), with ad libitum food and water. This study was carried out in strict accordance with the requirements of the Committee for the Purpose of Control and Supervision of Experiments on Animals (CPCSEA), India. All efforts were made to minimize suffering.
Drugs and Drug Administration. Compound 1 was synthesized as described above. It was administered subcutaneously (SC) dissolved in saline vehicle at a volume of 10 mL/kg. Five doses were tested, with n=6 animals/group. Doses were calculated on the basis of the freebase.
Procedure. Mice were administered one dose of the drug and immediately placed into a small open field for behavioral observation. Animals were observed continuously for 20 mins and the number of head twitches (HTs) were counted by an observer blind to the treatment condition.
Statistical Analysis. The data points shown are the mean±standard error of the mean (SEM). Analysis was performed using GraphPad Prism 6. Curves were fit using a non-linear gaussian distribution to calculate ED50 and Emax values.
Additional disclosed compounds were tested in the mouse head twitch response (HTR) assay according to the procedure described in Example 43. […] Lastly, compounds with much larger benzyl and phenethyl substituents on the amine nitrogen (e.g., 10 and 11) were low efficacy in this assay, consistent with their lower maximal efficacy in the arrestin functional assay (see Example 41).

The target in series [7] is T1, 5-HT2A receptor. Briefly: PathHunter beta-arrestin recruitment assay at 5-HT2A. The class given is cell-based. As to the method:
The degree of arrestin bias varied substantially across the other compounds tested as well.
Arrestin Functional Assay at 5-HT2A. Recruitment of beta-arrestin was determined using a PathHunter assay at Eurofins DiscoverX (Fremont, Calif.) according to their standard protocols. PathHunter GPCR beta-arrestin assays take advantage of DiscoverX's proprietary Enzyme Fragment Complementation technology. The GPCR is fused in frame with a small enzyme donor fragment ProLink™ (PK) and co-expressed in cells stably expressing a fusion protein of beta-arrestin and the larger, N-terminal deletion mutant of beta-galactosidase. Activation of the GPCR (5-HT2A receptor in this case) stimulates binding of beta-arrestin to the PK-tagged GPCR and forces complementation of the two enzyme fragments, resulting in the formation of an active beta-galactosidase enzyme. This interaction leads to an increase in enzyme activity that can be measured using chemiluminescent PathHunter Detection Reagents. Briefly, PathHunter cells expressing 5-HT2A receptors were seeded in a volume of 20 μL into 384-well plates and incubated at 37° C. for the appropriate time prior to testing. […] Plates were then imaged on a microplate reader and the agonist activity was calculated using the following formula: % Activity=100%×(mean RLU of test sample−mean RLU of vehicle control)/(mean MAX control ligand−mean RLU of vehicle control), where RLU=relative light units.

The target of series [8] is T1, 5-HT2A receptor. Briefly: cell-based. The class given is cell-based. Conditions: Ca^2+ flux, agonist; read-out: 5-HT2A EC50.
Series [9] can be described thus: Metabolic stability in rat liver microsomes (RLM). Conditions: for t1/2: RLM, 0.50 mg protein per mL.
Series [10] in a line: Metabolic stability in human liver microsomes (HLM). The following applies: for t1/2: 1 μM, 0.50 mg protein per mL. The class given is in vitro ADME. The text has this: HLM Stability. Pooled HLM from adult male and female donors (Corning 452117) were used.
Where [11] appears, read: Ca^2+ flux, agonist, read-out: 5-HT1A EC50.
Setting [12] is: mouse, pooled mouse liver microsomes, pH 7.4, MLM (CD-1).
[13] abbreviates: both, rat, pooled rat liver microsomes, pH 7.4.
The mark [14] stands for this setting: both sexes, human, pooled human liver microsomes, pH 7.4, 0.50 mg protein per mL.

T4 sequence (P41595 whole entry): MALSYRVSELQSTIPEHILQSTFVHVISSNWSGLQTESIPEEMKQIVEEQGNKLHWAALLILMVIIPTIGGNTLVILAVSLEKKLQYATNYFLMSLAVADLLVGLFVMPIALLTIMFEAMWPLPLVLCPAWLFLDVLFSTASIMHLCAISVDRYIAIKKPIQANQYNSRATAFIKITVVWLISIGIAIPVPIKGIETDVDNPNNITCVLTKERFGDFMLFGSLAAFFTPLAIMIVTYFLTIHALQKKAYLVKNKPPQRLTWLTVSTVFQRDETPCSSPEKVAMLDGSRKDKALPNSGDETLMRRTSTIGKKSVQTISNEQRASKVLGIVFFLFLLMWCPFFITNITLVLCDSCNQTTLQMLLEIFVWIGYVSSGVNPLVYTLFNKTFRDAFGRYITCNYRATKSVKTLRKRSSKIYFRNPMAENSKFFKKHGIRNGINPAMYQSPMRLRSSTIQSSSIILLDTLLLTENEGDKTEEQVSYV
T1 sequence (P28223 whole entry): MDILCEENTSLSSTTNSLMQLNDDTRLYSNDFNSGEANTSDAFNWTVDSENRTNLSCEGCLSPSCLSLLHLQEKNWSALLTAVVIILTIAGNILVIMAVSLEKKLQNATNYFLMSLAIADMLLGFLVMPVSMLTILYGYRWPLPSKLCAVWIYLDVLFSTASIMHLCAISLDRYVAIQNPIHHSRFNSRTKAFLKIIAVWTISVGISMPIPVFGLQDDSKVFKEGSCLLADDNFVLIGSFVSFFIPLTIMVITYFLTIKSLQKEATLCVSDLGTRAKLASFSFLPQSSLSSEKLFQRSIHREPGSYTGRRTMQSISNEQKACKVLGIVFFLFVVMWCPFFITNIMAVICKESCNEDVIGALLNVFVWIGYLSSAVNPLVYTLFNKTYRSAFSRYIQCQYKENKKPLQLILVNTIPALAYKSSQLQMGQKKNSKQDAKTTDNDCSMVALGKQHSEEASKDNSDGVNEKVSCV

In the case of `CC[C@@H](C)NC(=O)[C@@H]1C=C2c3cccc4[nH]cc(c34)C[C@H]2N(CC)C1` [Compound 5, (6aR,9R)—N—((R)-sec-butyl)-7-ethyl-4,6,6a,7,8,9-hexahydroindolo[4,3-fg]quinoline-9-carboxamide], the Ki in [1] amounted to 2.18 nM. Besides, the EC50 in series [2] stood at 1.29 nM; in series [3] (setting [11]), 0.96 nM; in series [4], 35.4 nM; in series [7], 1.92 nM; in [8] it was 0.718 nM. Besides, the half-life at 1 μM in series [5] (setting [12]) is 8.1 min; in [9] (setting [13]), 19.3 min; in series [10] (setting [14]), 22.2 min. For the same compound, the intrinsic metabolic clearance (microsomal CLint) at 1 μM in [5] (setting [12]) came to 170 µL/min/mg; in [9] (setting [13]), 72 µL/min/mg; in series [10] (setting [14]), 62.3 µL/min/mg. Moreover, in series [6], the ED50 worked out at 0.0306 mg/kg. In series [6], the “Most Efficacious Dose” value stood at 0.32 mg/kg. Further, the “Emax (95% CI)” value in series [6] is 15.22 (11.77-19.03). Besides, the “agonist type in arrestin recruitment assay (in words)” value (“agonist type” for short) in series [7] (5-HT2A beta-arrestin) is listed as “full agonists”.
As for `CCC[C@@H](C)NC(=O)[C@@H]1C=C2c3cccc4[nH]cc(c34)C[C@H]2N(CCC)C1` [Compound 7, (6aR,9R)—N—((R)-pentan-2-yl)-7-propyl-4,6,6a,7,8,9-hexahydroindolo[4,3-fg]quinoline-9-carboxamide], the Ki in [1] was determined as 0.85 nM. For the same compound, the EC50 turned out to be 1.99 nM in [2]; 12.8 nM in series [3] (setting [11]); 364 nM in series [4]; 1.6 nM in series [7]; 13.2 nM in series [8]. Moreover, the “t1/2” value in [5] was 0.541 min; in [9] it was 1.612 min; in series [10], 1.65 min. Also, the microsomal CLint at 1 μM was 2560 µL/min/mg in series [5] (setting [12]), 860 µL/min/mg in [9] (setting [13]) and 840 µL/min/mg in series [10] (setting [14]). Besides, the 50% effective dose (ED50) in series [6] was found to be 58.9 mg/kg. For the same compound, in series [6], the “Most Efficacious Dose” value is reported as 1 mg/kg. Also, the “Emax (95% CI)” value in [6] is 720.4 (???-???). In addition, the “agonist type” value in series [7] (5-HT2A beta-arrestin) was “full agonists”.
Regarding `C=CCN1C[C@H](C(=O)N[C@H](C)CC)C=C2c3cccc4[nH]cc(c34)C[C@H]21` [Compound 8, (6aR,9R)-7-allyl-N—((R)-sec-butyl)-4,6,6a,7,8,9-hexahydroindolo[4,3-fg]quinoline-9-carboxamide], the inhibitory constant (Ki) in series [1] was 2.38 nM. In addition, the 50% effective concentration (EC50) worked out at 4.05 nM in series [2]; 2.53 nM in [3] (setting [11]); 22.2 nM in [4]; 1.71 nM in series [7]; 0.678 nM in series [8]. Besides, the figures for the “t1/2” value in series [5], in [9] and in series [10] were 3.7 min, 7.7 min and 7.9 min, respectively. In addition, the values for the microsomal CLint at 1 μM in series [5] (setting [12]), in [9] (setting [13]) and in series [10] (setting [14]) were 377 µL/min/mg, 180 µL/min/mg and 174 µL/min/mg, respectively. Further, the ED50 in series [6] amounted to 0.0282 mg/kg. For the same compound, the “Most Efficacious Dose” value in series [6] is recorded as 1 mg/kg. Also, the “Emax (95% CI)” value in series [6] was 12.03 (9.571-14.68). The “agonist type” value in series [7] (5-HT2A beta-arrestin) is “full agonists”.
In the case of `CC[C@@H](C)NC(=O)[C@@H]1C=C2c3cccc4[nH]cc(c34)C[C@H]2N(C)C1` [Int8, (6aR,9R)—N—((R)-sec-butyl)-7-methyl-4,6,6a,7,8,9-hexahydroindolo[4,3-fg]quinoline-9-carboxamide], in series [1], the Ki amounted to 1.07 nM. The EC50 was determined as 7.32 nM in series [2]; 9.69 nM in series [3] (setting [11]); 71.9 nM in [4]; 4.05 nM in [7]; 10.3 nM in [8]. Also, the figures for the “t1/2” value in series [5], in [9] and in [10] were 39.9 min, 99.5 min and 64.9 min, respectively. Besides, the values for the microsomal CLint at 1 μM in series [5] (setting [12]), in series [9] (setting [13]) and in [10] (setting [14]) were 34.7 µL/min/mg, 13.9 µL/min/mg and 21.3 µL/min/mg, respectively. Also, the ED50 in [6] was determined as 0.106 mg/kg. In series [6], the “Most Efficacious Dose” value was 1 mg/kg. For the same compound, the “Emax (95% CI)” value in series [6] is on record as 14.34 (10.41-31.47). In series [7] (5-HT2A beta-arrestin), this compound showed an Emax below 60%. Also, the “agonist type” value in series [7] (5-HT2A beta-arrestin) is “partial agonists”.
`CCC(CC)NC(=O)[C@H]1C=C2c3cccc4[nH]cc(c34)C[C@H]2N(C)C1` [Int14a, (6aR,9S)-7-methyl-N-(pentan-3-yl)-4,6,6a,7,8,9-hexahydroindolo[4,3-fg]quinoline-9-carboxamide]: the Ki in series [1] was 56.2 nM. Further, the EC50 in series [2] is 508 nM; in series [3], 1550 nM; in series [4], above 10000 nM; in series [7], 35.7 nM; in series [8], 468 nM. Besides, the “t1/2” value in series [5] came to 1.699 min; in series [9], 1.8 min; in series [10] it was 3.35 min. In addition, the results for the microsomal CLint at 1 μM in [5] (setting [12]), in [9] (setting [13]) and in [10] (setting [14]) were 816 µL/min/mg, 770 µL/min/mg and 414 µL/min/mg, respectively.
Take `CCC[C@@H](C)NC(=O)[C@H]1C=C2c3cccc4[nH]cc(c34)C[C@H]2N(C)C1` [Int17a, (6aR,9S)-7-methyl-N—((R)-pentan-2-yl)-4,6,6a,7,8,9-hexahydroindolo[4,3-fg]quinoline-9-carboxamide]: in series [1], the Ki stood at 41.3 nM. Besides, the EC50 is 962 nM in series [2]; 266 nM in [3] (setting [11]); above 10000 nM in series [4]; 75.8 nM in [7]; 425 nM in series [8]. Further, the “t1/2” value in series [5] worked out at 1.576 min; in series [9], 1.961 min; in series [10], 4.578 min. The microsomal CLint at 1 μM in series [5] (setting [12]) worked out at 880 µL/min/mg; in series [9] (setting [13]) it was 707 µL/min/mg; in series [10] (setting [14]), 303 µL/min/mg.
